Measurements taken from ChEMBL document CHEMBL1201862, “PubChem BioAssay data set” (2004).
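48-hour exposure; five concentrations; linearly interpolated endpoints. The concentration for 50% growth inhibition is given as GI50.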 Active and inactive are the calls of the source. No stated cut-off is given here; in the data, active = GI50 up to about 1.1 µM and inactive = higher.

Tests used:
Experiment in all cases: NCI anticancer screen, dose series, 48 h
[1] = tested on: A549
[2] = tested on: ACHN
[3] = tested on: COLO 205
[4] = tested on: HCC 2998
[5] = tested on: HCT-116
[6] = tested on: HOP-62
[7] = tested on: HT-29
[8] = tested on: K562
[9] = tested on: KM12
[10] = tested on: NCI-H460
[11] = tested on: OVCAR-4
[12] = tested on: OVCAR-8
[13] = tested on: SK-OV-3
[14] = tested on: SNB-19
[15] = tested on: SNB-75
[16] = tested on: SW-620
[17] = tested on: UACC-62
[18] = tested on: NCI/ADR-RES
[19] = tested on: T47D

Structure (SMILES) | GI50 [1] | GI50 [2] | GI50 [3] | GI50 [4] | GI50 [5] | GI50 [6] | GI50 [7] | GI50 [8] | GI50 [9] | GI50 [10] | GI50 [11] | GI50 [12] | GI50 [13] | GI50 [14] | GI50 [15] | GI50 [16] | GI50 [17] | GI50 [18] | GI50 [19]
CN(C)NC1=C([N+](=O)[O-])C=NN(c2ccccc2)C1 | 2.1 µM (inactive) | 1.73 µM (inactive) | 1.79 µM (inactive) | 1.79 µM (inactive) | 1.82 µM (inactive) | 2.16 µM (inactive) | 1.95 µM (inactive) | 2.44 µM (inactive) | 2.52 µM (inactive) | 2.09 µM (inactive) | 1.66 µM (inactive) | 2.04 µM (inactive) | 1.97 µM (inactive) | 2.54 µM (inactive) | 1.73 µM (inactive) | 1.89 µM (inactive) | 1.71 µM (inactive) | – | –
O=C(Nc1ccc(Br)cc1)C(=O)C(C(=O)c1ccccc1F)C1OC(=O)c2ccccc21 (configuration not stated) | 39.7 µM (inactive) | 38.5 µM (inactive) | 20.4 µM (inactive) | 16.9 µM (inactive) | 17.7 µM (inactive) | 22.8 µM (inactive) | 39.6 µM (inactive) | 31 µM (inactive) | 31.8 µM (inactive) | 31.8 µM (inactive) | 24.7 µM (inactive) | 24.8 µM (inactive) | 27.5 µM (inactive) | 20.3 µM (inactive) | 19.7 µM (inactive) | 31.9 µM (inactive) | 14 µM (inactive) | – | –
COc1cc(Br)c(/C=N/N=C(\N)NO)cc1OC | 10.4 µM (inactive) | 9.35 µM (inactive) | 11 µM (inactive) | 12.3 µM (inactive) | 15.2 µM (inactive) | 14.1 µM (inactive) | 15 µM (inactive) | 15.7 µM (inactive) | 15.5 µM (inactive) | 5.22 µM (inactive) | 54.5 µM (inactive) | 15.6 µM (inactive) | 10.6 µM (inactive) | 46.3 µM (inactive) | 21.3 µM (inactive) | 35.1 µM (inactive) | 11.1 µM (inactive) | – | –
C=C=C(C(=O)OC)[S+]([O-])c1ccc([N+](=O)[O-])cc1[N+](=O)[O-] (configuration not stated) | 52.7 µM (inactive) | 37.2 µM (inactive) | 23.5 µM (inactive) | 14.7 µM (inactive) | 21.4 µM (inactive) | > 45.3 µM (inactive) | 26.1 µM (inactive) | 20 µM (inactive) | 33.7 µM (inactive) | > 66.7 µM (inactive) | 35.6 µM (inactive) | 25.2 µM (inactive) | > 84.7 µM (inactive) | 56 µM (inactive) | 29 µM (inactive) | 14.5 µM (inactive) | 28.2 µM (inactive) | – | –
Cc1cc([N+](=O)[O-])c(S(=O)(=O)c2ccccc2)c([N+](=O)[O-])c1 | 23.6 µM (inactive) | 16.5 µM (inactive) | 9.51 µM (inactive) | 21.2 µM (inactive) | 9.75 µM (inactive) | 21.7 µM (inactive) | 7.85 µM (inactive) | 4.08 µM (inactive) | 17.1 µM (inactive) | 13.4 µM (inactive) | 7.83 µM (inactive) | 6.9 µM (inactive) | 24.8 µM (inactive) | 18.5 µM (inactive) | 22.5 µM (inactive) | 3.95 µM (inactive) | 7.69 µM (inactive) | – | –
COc1ccc(C2=C[C@]3(O)CCCN3C[C@@H]2c2ccc(OC)c(OC)c2)cc1 | < 0.0001 µM (active) | < 0.0001 µM (active) | < 0.0001 µM (active) | > 0.01 µM (active) | < 0.0001 µM (active) | < 0.0001 µM (active) | < 0.0001 µM (active) | < 0.0001 µM (active) | < 0.0001 µM (active) | < 0.0001 µM (active) | > 0.01 µM (active) | < 0.0001 µM (active) | < 0.0001 µM (active) | < 0.0001 µM (active) | < 0.0001 µM (active) | < 0.0001 µM (active) | < 0.0001 µM (active) | – | –
O=C(O)/C=C\C(=O)c1ccc(Cl)cc1 | > 100 µM (inactive) | 21.3 µM (inactive) | 19.6 µM (inactive) | > 100 µM (inactive) | 25.2 µM (inactive) | > 100 µM (inactive) | 27.2 µM (inactive) | 31.1 µM (inactive) | 52.1 µM (inactive) | > 100 µM (inactive) | 29.6 µM (inactive) | > 74.6 µM (inactive) | > 100 µM (inactive) | > 63 µM (inactive) | 44 µM (inactive) | 24 µM (inactive) | 29.9 µM (inactive) | – | –
Cc1cc2c(cc1Cl)SC(NNCCO)=NS2(=O)=O | – | > 100 µM (inactive) | > 100 µM (inactive) | > 100 µM (inactive) | > 100 µM (inactive) | > 100 µM (inactive) | > 100 µM (inactive) | 56.2 µM (inactive) | > 100 µM (inactive) | > 100 µM (inactive) | > 100 µM (inactive) | > 100 µM (inactive) | > 100 µM (inactive) | > 100 µM (inactive) | > 100 µM (inactive) | > 100 µM (inactive) | 97.7 µM (inactive) | > 100 µM (inactive) | > 100 µM (inactive)
CN(C)c1ccc2c(c1)C(=O)N(OS(=O)(=O)c1ccc([N+](=O)[O-])cc1)C2=O | 39.2 µM (inactive) | 24.7 µM (inactive) | 24.3 µM (inactive) | 24.6 µM (inactive) | > 10 µM (inactive) | 37.1 µM (inactive) | 21.7 µM (inactive) | 31.6 µM (inactive) | 25.1 µM (inactive) | 49.3 µM (inactive) | 15.7 µM (inactive) | 25.5 µM (inactive) | > 100 µM (inactive) | 41.7 µM (inactive) | 31.6 µM (inactive) | 20.4 µM (inactive) | 17.1 µM (inactive) | – | –
COc1cccc(Nc2nc(-c3cccs3)nc3cc(OC)c(OC)cc23)c1 | 29 µM (inactive) | 21.6 µM (inactive) | 23.2 µM (inactive) | – | 26.4 µM (inactive) | 27.8 µM (inactive) | 24.8 µM (inactive) | 37.1 µM (inactive) | 30.4 µM (inactive) | 28.8 µM (inactive) | 41.3 µM (inactive) | 23.9 µM (inactive) | 53 µM (inactive) | 28.4 µM (inactive) | 32.8 µM (inactive) | 29 µM (inactive) | 19.1 µM (inactive) | 24.3 µM (inactive) | 42.8 µM (inactive)
CC1CC(C)C(=O)C(C(=O)CC2CC(=O)NC2=O)C1 (configuration not stated) | > 100 µM (inactive) | > 100 µM (inactive) | > 100 µM (inactive) | > 100 µM (inactive) | > 100 µM (inactive) | > 100 µM (inactive) | > 100 µM (inactive) | > 100 µM (inactive) | > 100 µM (inactive) | > 100 µM (inactive) | > 100 µM (inactive) | > 100 µM (inactive) | > 100 µM (inactive) | > 100 µM (inactive) | > 100 µM (inactive) | > 100 µM (inactive) | > 100 µM (inactive) | – | –
O=C(O)CSc1nnc(-c2ccco2)[nH]1 | > 100 µM (inactive) | > 100 µM (inactive) | > 100 µM (inactive) | > 100 µM (inactive) | > 100 µM (inactive) | > 100 µM (inactive) | > 100 µM (inactive) | > 100 µM (inactive) | > 100 µM (inactive) | > 100 µM (inactive) | > 100 µM (inactive) | > 100 µM (inactive) | > 100 µM (inactive) | > 100 µM (inactive) | 95.5 µM (inactive) | > 100 µM (inactive) | > 100 µM (inactive) | – | –
COC(=O)c1c(C)oc2ccc(OC(C)=O)cc12 | > 100 µM (inactive) | > 100 µM (inactive) | > 100 µM (inactive) | 30.5 µM (inactive) | > 100 µM (inactive) | > 100 µM (inactive) | 83 µM (inactive) | > 100 µM (inactive) | > 100 µM (inactive) | > 100 µM (inactive) | > 100 µM (inactive) | > 100 µM (inactive) | > 100 µM (inactive) | > 100 µM (inactive) | 34.8 µM (inactive) | > 100 µM (inactive) | 97.7 µM (inactive) | – | –
Nc1ccc2nc(-c3cccc(C(F)(F)F)c3)cc(O)c2c1 | 71.4 µM (inactive) | 80.2 µM (inactive) | 27.2 µM (inactive) | 60.1 µM (inactive) | – | 47.2 µM (inactive) | 34.1 µM (inactive) | – | 36.2 µM (inactive) | 29.8 µM (inactive) | – | 47 µM (inactive) | 44.8 µM (inactive) | 46.1 µM (inactive) | 27.3 µM (inactive) | 62.1 µM (inactive) | 53.2 µM (inactive) | 92.9 µM (inactive) | –
CC1(Cl)CC2OC3(Br)C=CC(C)(O)C2(CC1Br)C3(C)C (configuration not stated) | > 100 µM (inactive) | > 100 µM (inactive) | > 100 µM (inactive) | > 100 µM (inactive) | > 100 µM (inactive) | > 100 µM (inactive) | > 100 µM (inactive) | > 100 µM (inactive) | > 100 µM (inactive) | > 100 µM (inactive) | > 100 µM (inactive) | > 100 µM (inactive) | > 100 µM (inactive) | > 100 µM (inactive) | 82.6 µM (inactive) | > 100 µM (inactive) | > 100 µM (inactive) | – | –
CCOC(=O)C1=C(C)N(Cc2ccccc2)C2(O)C(OC)CC(=O)C3C(=O)N(c4ccccc4)C(=O)C132 (configuration not stated) | 7.74 µM (inactive) | 10.4 µM (inactive) | 7.21 µM (inactive) | 12.4 µM (inactive) | 6.3 µM (inactive) | 6.81 µM (inactive) | 4.9 µM (inactive) | 4.43 µM (inactive) | 8.75 µM (inactive) | 6.98 µM (inactive) | 4.84 µM (inactive) | 5.53 µM (inactive) | – | 16.3 µM (inactive) | – | 4.93 µM (inactive) | 5.66 µM (inactive) | 13.8 µM (inactive) | 4.28 µM (inactive)
